According to patent EP0790293A1, “Lubricant” (Asahi Kasei Kogyo Kabushiki Kaisha, priority 1991, dated 1992):

Tests used:
Format in all cases: physicochemical
[1] = Evaluation of heat resistance (sealed tube test); conditions: 175 °C for 10 days with HFC-134a and steel, copper, aluminum pieces
Protocol: A glass tube was charged with 0.6 ml of purified oil [S1], HFC-134a and test pieces of steal copper and aluminum, and the glass tube was then sealed to enclose a refrigerant composition therein. The refrigerant composition was heated at 175 °C for 10 days. After the heating, any change of the hue of the refrigerant composition and any change of the surfaces of the metal pieces were examined.
The heat resistances of various compounds of the present invention were evaluated according to the sealed tube test in the same manner as described above. […]

[2] = Miscibility with mineral oil; conditions: weight ratio 50/50
[3] = Miscibility test with HFC-32
Protocol: (§1) First, 0.2 g of the oil [S1] was charged into a glass tube and then, the whole was cooled by liquid nitrogen. The interior of the glass tube was evacuated and, about 1.5 g of HFC-134a was introduced into the glass tube. The glass tube was sealed and placed in a temperature-controlled water bath. When the temperature was equilibriated, in the manner in which the miscibility of the oil [S1] with the fluoroalkane was visually evaluated, a miscibility limit was measured in the temperature range of from room temperature to 90 °C. A lower miscibility limit at temperatures lower than room temperature was likewise measured by cooling with a methanol cooling medium. The results are shown in Table 3 together with the results of Comparative Example 1.
The miscibility of the oil [S2] obtained in Referential Example 2 with HFC-32 (CH2F2) was evaluated in the same manner as in Example 1.

[4] = Kinetic viscosity (E-type rotational viscometer, Cannon-Fenske viscometer)
Source text: The kinetic viscosity of the lubricant oil for use in the present invention can be determined by measuring the viscosity by means of various viscometers. As the viscometer to be used for determining the kinetic viscosity, there can be mentioned a capillary viscometer, such as a Ubbellohde viscometer, an Ostward viscometer or a Cannon-Fenske viscometer, a rotational viscometer, and a falling ball viscometer. In the present invention, an E-type rotational viscometer (manufactured by Tokyo Keiki, Japan) and a Cannon-Fenske viscometer were used.

[5] = Volume resistivity, JIS C2101 (insulating oil test); conditions: 20 °C; for volume resistivity: oil as obtained in the Referential Example
Protocol: Volume resistivity of the oil [S1] obtained in Referential Example 1 was measured according to the method of JIS C2101 (insulating oil test).

[6] = Insulation breakdown voltage, JIS C2101; conditions: oil purified with activated carbon
Protocol: 100 g of activated carbon (Calgon® CPG, manufactured by Calgon Far East, Japan) dried in vacuum at 150 °C for 3 hours was dispersed in 400 g of R-113 to obtain a suspension, and 200 g of the oil [S1] obtained in Example 40 was added thereto, followed by agitation at room temperature overnight. The activated carbon was removed by filtration and, then, the R-113 was dis tilled off, followed by simple distillation of the oil, thereby obtaining 140 g of a colorless, transparent oil. The oil obtained according to the present purification method was analyzed by gas chromatography. […] Further, each of the volume resistivities of the oil at 20 °C before and after purification was measured in substantially the same manner as in Example 45. […] The above results are shown in Table 13, together with the results of Comparative Examples 17 through 20.

[7] = Miscibility test with HFC-125
Protocol: as §1
The miscibility of the oil [S2] obtained in Referential Example 2 with HFC-125 (CF3CHF2) was evaluated in the same manner as in Example 1.

[8] = Miscibility test with HFC-134a (sealed glass tube, visual evaluation); conditions: for Temperature range for being miscible with HFC-134a lower limit temperature (°C) / Temperature range for being miscible with HFC-134a upper limit temperature (°C): 0.2 g oil, about 1.5 g HFC-134a; for Temperature range for being miscible with HFC-134a upper limit temperature (°C): measured up to 90 °C
[9] = Miscibility with polypropylene glycol; conditions: weight ratio 50/50; polypropylene glycol number average molecular weight 1000
[10] = Miscibility with ester oil; conditions: weight ratio 50/50
[11] = Miscibility test with HFC-227ea
Protocol: as §1
The miscibility of the oil [S2] obtained in Referential Example 2 with HFC-227ea (CF3CHFCF3) was evaluated in the same manner as in Example 1.

[12] = Miscibility with fluoroalkanes in general
Source text: The present inventors have examined the miscibilities of perfluoropolyethers having the various structures indicated below, inclusive of perfluoropolyethers (trade name: Fomblin Y-06, Y-25 and Y-45, manufactured and sold by Nippon Montedison Co., Ltd., Japan) employed in Examples of Japanese Patent Application Laid-Open Specification Nos. 60-96684 and 1-118598, with a fluoroalkane, such as HFC-134a, HFC-134 and HFC-152a. […] Accordingly, it has been confirmed that such perfluoropolyethers are not suitable as a lubricant for use in refrigeration equipment employing a fluoroalkane, such as HFC-134a, HFC-134 and HFC-152a, as a refrigerant. [drawing 1] wherein each of q1, q2, q3, q4, q5 and q6 is a positive integer.
The miscibilities of commercially available perfluoropolyether and 2,2-bis(4-ethoxyphenyl)propane with each of the above various fluoroalkane were evaluated, in substantially the same manner as in Example 1. The results are shown in Table 3 together with data of the kinetic viscosity at 40 °C.

[13] = mixing ratio [S2]/[S2]+HFC-134a 5 % by weight
[14] = mixing ratio [S2]/[S2]+HFC-134a 10 % by weight
[15] = mixing ratio [S2]/[S2]+HFC-134a 30 % by weight
[16] = mixing ratio [S2]/[S2]+HFC-134a 50 % by weight
[17] = mixing ratio [S2]/[S2]+HFC-134a 80 % by weight

Row | SMILES | After sealed tube test IR [1] | After sealed tube test hue [1] | After sealed tube test metal surface [1] | After sealed tube test viscosity [1] | lower limit temperature to be miscible with HFC-32 [3] [°C] | upper limit temperature to be miscible with HFC-32 [3] [°C] | Kinetic viscosity (cSt)40°C [4] [cSt] | kinetic viscosity at 100 °C [4] [cSt] | volume resistivity [5] | Temperature range for being miscible with HFC-134a lower limit temperature (°C) [8] | Temperature range for being miscible with HFC-134a upper limit temperature (°C) [8] | also measured
1 | CC(C)(c1ccc(OC(F)(F)C(F)Cl)cc1)c1ccc(OC(F)(F)C(F)Cl)cc1 (centres unmarked) [[S1]] | not changed at all | not changed | not changed | not changed at all | -56 | ≥ 90 | 56.8 | 5.34 | 3.0 x 10^11 Ωcm | – | – | miscibility with mineral oil [2]: completely miscible; Volume resistivity (Ωcm) before purification ([5]; oil of Example 40 ([S1]) or Example 44 ([S2]) before adsorbent treatment): 1.0 x 10^11 Ωcm; volume resistivity after purification ([5]; purified with activated carbon (Calgon® CPG)): 2.2 x 10^13 Ωcm; insulation breakdown voltage [6]: ≥ 50 kV/2.5 cm
2 | CC(C)(c1ccc(OC(F)(F)C(F)F)cc1)c1ccc(OC(F)(F)C(F)F)cc1 [[S2]] | not changed | not changed | not changed | not changed | ≤ -78 | 90 | 26.2 | 3.40 | 5.7 x 10^11 Ωcm | – | – | lower limit temperature to be miscible with HFC-125 [7]: ≤ -78 °C; upper limit temperature to be miscible with HFC-125 [7]: 90 °C; Temperature range to be miscible (°C) lower limit temperature [8, 13]: -78 or below °C; Temperature range to be miscible (°C) upper limit temperature [8, 13]: 90 or above °C; Temperature range to be miscible (°C) lower limit temperature [8, 14]: -78 or below °C; Temperature range to be miscible (°C) upper limit temperature [8, 14]: 90 or above °C; Temperature range to be miscible (°C) lower limit temperature [8, 15]: -78 or below °C; Temperature range to be miscible (°C) upper limit temperature [8, 15]: 90 or above °C; Temperature range to be miscible (°C) lower limit temperature [8, 16]: -78 or below °C; Temperature range to be miscible (°C) upper limit temperature [8, 16]: 90 or above °C; Temperature range to be miscible (°C) lower limit temperature [8, 17]: -78 or below °C; Temperature range to be miscible (°C) upper limit temperature [8, 17]: 90 or above °C; miscibility with polypropylene glycol [9]: completely miscible; miscibility with ester oil [10]: completely miscible; lower limit temperature to be miscible with HFC-227ea [11]: ≤ -78 °C; upper limit temperature to be miscible with HFC-227ea [11]: 90 °C
3 | Cc1cc(C(C)(C)c2ccc(OC(F)(F)C(F)F)c(C)c2)ccc1OC(F)(F)C(F)F [[S5]] | not changed | not changed | not changed | not changed | – | – | 115 | – | 2.9 x 10^12 Ωcm | -78 or below °C | 90 or above °C | –
4 | CC(C)(c1ccc(OC(F)F)cc1)c1ccc(OC(F)F)cc1 [[S7]] | – | – | – | – | – | – | 4 | – | – | -78 or below °C | 90 or above °C | –
5 | CC(C)(c1ccc(OC(F)(F)CF)cc1)c1ccc(OC(F)(F)CF)cc1 [[S9]] | – | – | – | – | – | – | 50 | – | – | -78 or below °C | 90 or above °C | –
6 | CCOc1ccc(C(C)(C)c2ccc(OCC)cc2)cc1 [[S14], 2,2-bis(4-ethoxyphenyl)propane] | – | – | – | – | – | – | – | – | – | – | – | miscibility with fluoroalkanes, such as HFC-134a [12]: little miscibility
